# Measured values from patent US8455475B2 (Gruenenthal GmbH, priority 2009, dated 2013).
# How the values were obtained:
# [1] = molecular target: T1, human B1R (bradykinin receptor 1) (Homo sapiens, UniProt P46663); assay: FLIPR Ca2+ assay (Fluo-4) on CHO K1 cells stably transfected with the human B1R gene (hB1R cells): % inhibition at 10 μM / IC50, agonist Lys-Des-Arg9-bradykinin; format: cell-based; details: for inhibition at 10 µM: CHO-K1, human B1R
# T1 construct: expressed in transfected cells; host or cells: CHO K1 cells
# T1 sequence (P46663 1-353): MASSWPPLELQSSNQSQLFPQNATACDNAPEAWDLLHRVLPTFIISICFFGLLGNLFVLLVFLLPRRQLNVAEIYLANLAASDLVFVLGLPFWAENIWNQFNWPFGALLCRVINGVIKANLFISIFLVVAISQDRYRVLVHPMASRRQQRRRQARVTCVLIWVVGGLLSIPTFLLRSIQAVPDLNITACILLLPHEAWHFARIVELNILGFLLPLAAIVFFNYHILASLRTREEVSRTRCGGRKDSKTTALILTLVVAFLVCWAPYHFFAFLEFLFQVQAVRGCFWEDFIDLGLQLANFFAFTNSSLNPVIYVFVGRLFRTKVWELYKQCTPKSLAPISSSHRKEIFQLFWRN
# How it was run: (§1)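 Using a two-addition FLIPR protocol, compound (10 μM for % values; concentration series for IC50) was preincubated 10–20 min with Fluo-4-loaded B1R-expressing CHO K1 cells before EC80 agonist challenge. Suppression of Ca2+ inflow, read as peak fluorescence, is expressed relative to maximum achievable inhibition; duplicate/triplicate, ≥2 independent experiments.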
# [2] = molecular target: T2, rat B1R (bradykinin receptor 1) (Rattus norvegicus, UniProt P97583); assay: FLIPR Ca2+ assay (Fluo-4) on CHO K1 cells stably transfected with the B1R gene of the rat (rB1R cells): % inhibition at 10 μM / IC50, agonist Des-Arg9-bradykinin; format: cell-based; details: for inhibition at 10 µM: CHO-K1, rat B1R
# T2 construct: expressed in transfected cells; host or cells: CHO K1 cells
# T2 sequence (P97583 1-337): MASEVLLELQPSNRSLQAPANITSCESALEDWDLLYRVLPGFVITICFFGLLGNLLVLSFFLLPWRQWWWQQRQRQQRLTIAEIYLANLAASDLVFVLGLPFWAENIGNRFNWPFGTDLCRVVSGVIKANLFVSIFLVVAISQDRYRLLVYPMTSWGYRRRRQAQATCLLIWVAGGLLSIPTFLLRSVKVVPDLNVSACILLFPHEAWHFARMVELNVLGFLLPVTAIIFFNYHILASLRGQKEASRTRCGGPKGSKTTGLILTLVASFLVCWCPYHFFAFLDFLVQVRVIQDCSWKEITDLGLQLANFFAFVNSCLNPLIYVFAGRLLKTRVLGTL
# How it was run: as §1
Compound,% Inhibition (human B1R) at 10 μM ([1]; 10 µM),% Inhibition (rat B1R) at 10 μM [2],inhibition at 10 µM [1],inhibition at 10 µM [2],% Inhibition (human B1R) at 10 μM [1]
"CN(C(=O)c1ccccc1Cl)C1CCc2ccc(C(=O)N3CCC4(CC3)CCN(c3ccncc3)CC4)cc21 (stereo not drawn) [IND_CC-272, 2-Chloro-N-methyl-N-[6-(9-pyridin-4-yl-3,9-diazaspiro[5.5]undecane-3-carbonyl)-2,3-dihydro-1H-inden-1-yl]-benzamide]",99%,107%,–,–,–
"O=C(NC1CCc2ccc(C(=O)N3CCC4(CC3)CCN(c3ccncc3)CC4)cc21)c1ccccc1Cl (stereo not drawn) [IND_CC-273, 2-Chloro-N-[6-(9-pyridin-4-yl-3,9-diazaspiro[5.5]undecane-3-carbonyl)-2,3-dihydro-1H-inden-1-yl]-benzamide]",–,–,99%,106%,–
"O=C(NC1CCc2ccc(C(=O)N3CCC4(CC3)CCN(c3ccc(C(F)(F)F)cc3)CC4)cc21)c1ccc(F)cc1Cl (stereo not drawn) [IND_CC-274, 2-Chloro-4-fluoro-N-[6-[9-[4-(trifluoromethyl)-phenyl]-3,9-diazaspiro[5.5]undecane-3-carbonyl]-2,3-dihydro-1H-inden-1-yl]-benzamide]",–,–,8%,102%,–
"CC1(C)Cc2ccc(C(=O)N3CCC4(CC3)CCN(c3ccncc3)CC4)cc2C1NC(=O)c1ccc(F)cc1Cl (stereo not drawn) [IND_CC-275, 2-Chloro-N-[2,2-dimethyl-6-(9-pyridin-4-yl-3,9-diazaspiro[5.5]undecane-3-carbonyl)-1,3-dihydro-inden-1-yl]-4-fluoro-benzamide]",–,–,100%,107%,–
"CC1(C)CC(NC(=O)c2ccc(F)cc2Cl)c2cc(C(=O)N3CCC4(CC3)CCN(c3ccncc3)CC4)ccc21 (stereo not drawn) [IND_CC-276, 2-Chloro-N-[3,3-dimethyl-6-(3-pyridin-4-yl-3,9-diazaspiro[5.5]undecane-9-carbonyl)-1,2-dihydro-inden-1-yl]-4-fluoro-benzamide]",–,–,100%,107%,–
"O=C(NC1CCc2ccc(C(=O)N3CCC4(CCN(c5ccncc5)CC4)C3)cc21)c1ccc(F)cc1Cl (stereo not drawn) [IND_CC-277, 2-Chloro-4-fluoro-N-[6-(8-pyridin-4-yl-2,8-diazaspiro[4.5]decane-2-carbonyl)-2,3-dihydro-1H-inden-1-yl]-benzamide]",–,–,100%,105%,–
"O=C(NC1CCc2ccc(C(=O)N3CCC4(CC3)CCN(c3ccc(C(F)(F)F)cc3)CC4)cc21)c1c(F)cccc1Cl (stereo not drawn) [IND_CC-278, 2-Chloro-6-fluoro-N-[6-[9-[4-(trifluoromethyl)-phenyl]-3,9-diazaspiro[5.5]undecane-3-carbonyl]-2,3-dihydro-1H-inden-1-yl]-benzamide]",–,–,35%,101%,–
"CC1(C)CC(NC(=O)c2c(F)cccc2Cl)c2cc(C(=O)N3CCC4(CC3)CCN(c3ccncc3)CC4)ccc21 (stereo not drawn) [IND_CC-279, 2-Chloro-N-[3,3-dimethyl-6-(3-pyridin-4-yl-3,9-diazaspiro[5.5]undecane-9-carbonyl)-1,2-dihydro-inden-1-yl]-6-fluoro-benzamide]",–,–,100%,106%,–
"O=C(NC1CCc2ccc(C(=O)N3CCC4(CCN(c5ccncc5)CC4)C3)cc21)c1c(F)cccc1Cl (stereo not drawn) [IND_CC-280, 2-Chloro-6-fluoro-N-[6-(8-pyridin-4-yl-2,8-diazaspiro[4.5]decane-2-carbonyl)-2,3-dihydro-1H-inden-1-yl]-benzamide]",–,–,100%,108%,–
"O=C(NC1CCc2ccc(C(=O)N3CCC4(CC3)CCN(c3ccc(C(F)(F)F)cc3)CC4)cc21)c1cccc(Cl)c1Cl (stereo not drawn) [IND_CC-281, 2,3-Dichloro-N-[6-[9-[4-(trifluoromethyl)-phenyl]-3,9-diazaspiro[5.5]undecane-3-carbonyl]-2,3-dihydro-1H-inden-1-yl]-benzamide]",–,–,84%,105%,–
"CC1(C)Cc2ccc(C(=O)N3CCC4(CC3)CCN(c3ccncc3)CC4)cc2C1NC(=O)c1cccc(Cl)c1Cl (stereo not drawn) [IND_CC-282, 2,3-Dichloro-N-[2,2-dimethyl-6-(9-pyridin-4-yl-3,9-diazaspiro[5.5]undecane-3-carbonyl)-1,3-dihydro-inden-1-yl]-benzamide]",–,–,69%,107%,–
"CC1(C)CC(NC(=O)c2cccc(Cl)c2Cl)c2cc(C(=O)N3CCC4(CC3)CCN(c3ccncc3)CC4)ccc21 (stereo not drawn) [IND_CC-283, 2,3-Dichloro-N-[3,3-dimethyl-6-(3-pyridin-4-yl-3,9-diazaspiro[5.5]undecane-9-carbonyl)-1,2-dihydro-inden-1-yl]-benzamide]",–,–,96%,107%,–
"O=C(NC1CCc2ccc(C(=O)N3CCC4(CCN(c5ccncc5)CC4)C3)cc21)c1cccc(Cl)c1Cl (stereo not drawn) [IND_CC-284, 2,3-Dichloro-N-[6-(8-pyridin-4-yl-2,8-diazaspiro[4.5]decane-2-carbonyl)-2,3-dihydro-1H-inden-1-yl]-benzamide]",–,–,100%,107%,–
"CC1(C)Cc2ccc(C(=O)N3CCC4(CC3)CCN(c3ccncc3)CC4)cc2C1NC(=O)c1c(Cl)cccc1Cl (stereo not drawn) [IND_CC-287, 2,6-Dichloro-N-[2,2-dimethyl-6-(9-pyridin-4-yl-3,9-diazaspiro[5.5]undecane-3-carbonyl)-1,3-dihydro-inden-1-yl]-benzamide]",–,–,99%,105%,–
"CC1(C)CC(NC(=O)c2c(Cl)cccc2Cl)c2cc(C(=O)N3CCC4(CC3)CCN(c3ccncc3)CC4)ccc21 (stereo not drawn) [IND_CC-288, 2,6-Dichloro-N-[3,3-dimethyl-6-(3-pyridin-4-yl-3,9-diazaspiro[5.5]undecane-9-carbonyl)-1,2-dihydro-inden-1-yl]-benzamide]",–,–,100%,106%,–
"O=C(NC1CCc2ccc(C(=O)N3CCC4(CCN(c5ccncc5)CC4)C3)cc21)c1c(Cl)cccc1Cl (stereo not drawn) [IND_CC-289, 2,6-Dichloro-N-[6-(8-pyridin-4-yl-2,8-diazaspiro[4.5]decane-2-carbonyl)-2,3-dihydro-1H-inden-1-yl]-benzamide]",–,–,100%,104%,–
"O=C(NC1CCc2ccc(C(=O)N3CCC4(CC3)CCN(c3ccc(C(F)(F)F)cc3)CC4)cc21)c1ccccc1Cl (stereo not drawn) [IND_CC-290, 2-Chloro-N-[6-[9-[4-(trifluoromethyl)-phenyl]-3,9-diazaspiro[5.5]undecane-3-carbonyl]-2,3-dihydro-1H-inden-1-yl]-benzamide]",–,–,35%,100%,–
"CC1(C)Cc2ccc(C(=O)N3CCC4(CC3)CCN(c3ccncc3)CC4)cc2C1NC(=O)c1ccccc1Cl (stereo not drawn) [IND_CC-291, 2-Chloro-N-[2,2-dimethyl-6-(9-pyridin-4-yl-3,9-diazaspiro[5.5]undecane-3-carbonyl)-1,3-dihydro-inden-1-yl]-benzamide]",–,–,98%,104%,–
"CC1(C)CC(NC(=O)c2ccccc2Cl)c2cc(C(=O)N3CCC4(CC3)CCN(c3ccncc3)CC4)ccc21 (stereo not drawn) [IND_CC-292, 2-Chloro-N-[3,3-dimethyl-6-(3-pyridin-4-yl-3,9-diazaspiro[5.5]undecane-9-carbonyl)-1,2-dihydro-inden-1-yl]-benzamide]",–,–,99%,105%,–
"O=C(NC1CCc2ccc(C(=O)N3CCC4(CCN(c5ccncc5)CC4)C3)cc21)c1ccccc1Cl (stereo not drawn) [IND_CC-293, 2-Chloro-N-[6-(8-pyridin-4-yl-2,8-diazaspiro[4.5]decane-2-carbonyl)-2,3-dihydro-1H-inden-1-yl]-benzamide]",–,106%,–,–,100%
"Cc1cccc(C)c1C(=O)NC1CCc2ccc(C(=O)N3CCC4(CC3)CCN(c3ccncc3)CC4)cc21 (stereo not drawn) [IND_CC-294, 2,6-Dimethyl-N-[6-(9-pyridin-4-yl-3,9-diazaspiro[5.5]undecane-3-carbonyl)-2,3-dihydro-1H-inden-1-yl]-benzamide]",–,–,99%,105%,–
"Cc1cccc(C)c1C(=O)NC1CCc2ccc(C(=O)N3CCC4(CC3)CCN(c3ccncc3)C4)cc21 (stereo not drawn) [IND_CC-295, 2,6-Dimethyl-N-[6-(2-pyridin-4-yl-2,8-diazaspiro[4.5]decane-8-carbonyl)-2,3-dihydro-1H-inden-1-yl]-benzamide]",–,–,96%,106%,–
"COc1ccc(C(=O)N(C)C2CCc3ccc(C(=O)N4CCC5(CC4)CCN(c4ccncc4)CC5)cc32)c(F)c1 (stereo not drawn) [IND_CC-296, 2-Fluoro-4-methoxy-N-methyl-N-[6-(9-pyridin-4-yl-3,9-diazaspiro[5.5]undecane-3-carbonyl)-2,3-dihydro-1H-inden-1-yl]-benzamide]",–,–,59%,103%,–
"Cc1cc(OC(F)(F)F)ccc1C(=O)N(C)C1CCc2ccc(C(=O)N3CCC4(CC3)CCN(c3ccncc3)CC4)cc21 (stereo not drawn) [IND_CC-299, N,2-Dimethyl-N-[6-(9-pyridin-4-yl-3,9-diazaspiro[5.5]undecane-3-carbonyl)-2,3-dihydro-1H-inden-1-yl]-4-(trifluoromethyloxy)-benzamide]",–,–,27%,106%,–
